Reference: US20090098652A1, “SELF ASSEMBLING PEPTIDE SYSTEMS AND METHODS” (Northwestern University, priority 2007, published 2009)
Where a SMILES comes first, the peptide text is derived from it. The star is where a group is joined. Palmitoyl = CCCCCCCCCCCCCCCC(=O)*

Experiments:
P19 cells = conditions: flow cytometry; all tested concentrations
Protocol: In experiments conducted during development of embodiments of the present invention, P19 cells in suspension were allowed to form aggregates for four days and were then cultured with the histidine hexamer PA, with sequence [sequence]-palmitoyl for two weeks. […] P19 cells were allowed to form aggregates for seven days and then cultured with the DNA-PA complexes.

[1] = system: P19 cells in suspension aggregates; assay: Transfection of P19 suspension aggregates with GFP plasmid, read by qPCR and Western blot; assay type: cell-based; conditions: comparison of PA system, peptide and Lipofectamine
Source text: In the figure, “peptide amphiphile” is the DNA-binding PA with sequence […](N^ε-palmitoyl) and “peptide” is a peptide with sequence […].
In some embodiments, the invention described here improves on this system by incorporating one or more peptides which are bioactive and direct the complex to the nucleus. It is designed, in some embodiments, to form an alpha helix which binds to the major groove of the double helix of DNA. In addition, it is a self-assembling peptide amphiphile (PA) which forms high aspect ratio nanostructures. When complexed with DNA, these nanostructures are, on average, smaller than the nanostructures produced by LIPOFECAMINE as determined by dynamic light scattering. The present invention is not limited to a particular mechanism. Indeed, an understanding of the mechanism is not necessary to practice the present invention. Nonetheless, it is contemplated that the system works by complexing and condensing the DNA through specific binding to the major groove and electrostatic screening. This DNA-PA complex is similar to the LIPOFECTAMINE complex, however it includes a peptide region containing a nuclear localization signal which directs the cell to move this complex through the cytoplasm and into the nucleus where the genes encoded in the DNA are subsequently expressed. […]

Compound | toxicity to P19 cells (P19 cells) | transfection efficiency (in words) [1] | transfection efficiency (in words) ([1]; listed as peptide control)
CCCCCCCCCCCCCCCC(=O)NCCCC[C@H](NC(=O)[C@H](C)NC(=O)[C@H](C)NC(=O)[C@H](C)NC(=O)[C@H](CC(C)C)NC(=O)[C@H](CC(C)C)NC(=O)[C@H](CC(C)C)NC(=O)[C@H](CCCCN)NC(=O)[C@H](CC(N)=O)NC(=O)[C@@H](NC(=O)[C@H](C)NC(=O)[C@H](CO)NC(=O)[C@H](CCC(N)=O)NC(=O)[C@H](Cc1ccc(O)cc1)NC(=O)[C@@H](NC(=O)CNC(=O)[C@H](CC(C)C)NC(=O)[C@H](CCCNC(=N)N)NC(=O)[C@H](CCCCN)NC(=O)[C@H](C)NC(=O)[C@@H](NC(=O)[C@H](CCCCN)NC(=O)[C@@H](N)CCCNC(=N)N)[C@@H](C)O)C(C)C)[C@@H](C)CC)C(=O)O [DNA-binding PA] (H-RKTAKRLGVYQSAINKLLLAAAK(Palmitoyl)-OH) | nontoxic | – | –
RKTAKRLGVYQSAINK [peptide] | – | lower transfection efficiency | poor results compared to both the lipofectamine system and the PA system
